Data on 14 compounds can be found in patent US20260108546A1 (ELI LILLY AND COMPANY, priority 2024, published 2026).

The structures appear in SMILES notation.

For this assay, the target named is T1, hGIP-R (Homo sapiens, UniProt P48546).
T1 construct: expressed in transfected cells; host or cells: HEK-293 clonal cell lines
T1 sequence (P48546 22-466): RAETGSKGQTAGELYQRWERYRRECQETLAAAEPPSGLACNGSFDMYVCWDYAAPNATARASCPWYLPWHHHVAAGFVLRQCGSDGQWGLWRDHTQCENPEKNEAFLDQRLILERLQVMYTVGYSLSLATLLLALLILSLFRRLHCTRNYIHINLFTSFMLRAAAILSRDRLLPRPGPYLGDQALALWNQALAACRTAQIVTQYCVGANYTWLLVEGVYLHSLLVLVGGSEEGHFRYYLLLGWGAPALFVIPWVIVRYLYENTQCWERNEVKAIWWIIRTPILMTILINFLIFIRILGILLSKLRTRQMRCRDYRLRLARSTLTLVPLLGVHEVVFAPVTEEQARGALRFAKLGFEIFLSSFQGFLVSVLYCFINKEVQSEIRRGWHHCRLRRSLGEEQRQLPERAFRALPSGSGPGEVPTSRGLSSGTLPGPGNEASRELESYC
As to the kind of experiment: Functional hGIP-R Assay (cAMP formation, HTRF). The assay is classed as cell-based. Conditions: for Emax: cAMP efficacy, percent of maximal response to GIP(1-42)OH, 37° C., 0.1% bovine casein, arithmetic mean ± SEM; for EC50: cAMP potency, HEK-293 cells expressing hGIP-R, incubated at 37° C. in the presence of 0.1% bovine casein, geometric mean, read-out: Human GIP-R EC50, nM (SEM, n). As to the method: Functional activity was determined using CAMP formation in HEK-293 clonal cell lines expressing hGIP-R. hGIP-R receptor expressing cells were treated with compound (20 point concentration-response curve in DMSO, 2-fold Labcyte Echo direct dilution, 384 well plate Corning Cat #3570) in DMEM (Gibco Cat #31053) supplemented with 1× GlutaMAX™ (Gibco Cat #35050), 0.1% bovine casein (Sigma C4765-10ML), 250 μM IBMX (3-Isobutyl-1-methylxanthine, Acros Cat #228420010) and 20 mM HEPES (Gibco Cat #15630) in a 20 μL assay volume (final DMSO concentration was 1%). After a 30 min incubation at 37° C., the resulting increase in intracellular cAMP was quantitatively determined using the Revvity CAMP Dynamic 2 HTRF Assay Kit (62AM4PEJ). Briefly, cAMP levels within the cell were detected by adding the cAMP-d2 conjugate in cell lysis buffer (10 μL) followed by the antibody anti-cAMP-Eu^3+-Cryptate, also in cell lysis buffer (10 μL). The resulting competitive assay was incubated for at least 60 min at RT, then detected using a BMG Labtech PHERAstar FSX instrument with excitation at 320 nm and emission at 665 nm and 620 nm. PHERAstar units (emission at 665 nm/620 nm*10,000) are inversely proportional to the amount of cAMP present and were converted to nM cAMP per well using a CAMP standard curve. The amount of cAMP generated (nM) in each well was converted to a percent of the maximal response observed with human GIP (1-42) OH. A relative EC50 value and percent top (Emax) were derived by non-linear regression analysis using the percent maximal response vs. the concentration of compound added, fitted to a four-parameter logistic equation.
(In general: Cyclic AMP is a second messenger, typically raised through Gs and lowered through Gi signalling.)

On to `Cn1cc2cc(-c3ccc(C4CC45CCN([C@H](Cc4cnn(C(F)F)c4)C(=O)NC(C)(C)Cn4nc(C(F)(F)F)cc4-c4cc(F)c(=O)n(C)c4)C5=O)c(C(F)F)c3)cnc2n1` (single isomer, unassigned; isomer 2) [Example 109], for which the Emax (in general, the greatest response seen or fitted, relative to the assay's reference) is 73.3 ± 2.59% and the EC50 (as a rule, the midpoint of the concentration-response curve) came to 0.701 nM.
For `Cn1cc(C[C@@H](NC(=O)C2CC2(C)c2ccc(-c3cnc4nn(C)cc4c3)cc2)C(=O)NC(C)(C)Cn2cc(C(F)(F)F)cn2)cn1` (single isomer, unassigned; isomer 4) [Example 11], in that order: 117 ± 5.22% and 55.2 nM.
For `Cn1cc2cc(-c3ccc([C@H]4C[C@@H]4C(=O)N[C@H](Cc4cnn(C(F)F)c4)C(=O)NC(C)(C)Cn4nc(C(F)(F)F)cc4Br)cc3)cnc2n1` [Example 12, (1S,2S)-N-((R)-1-((1-(5-bromo-3-(trifluoromethyl)-1H-pyrazol-1-yl)-2-methylpropan-2-yl)amino)-3-(1-(difluoromethyl)-1H-pyrazol-4-yl)-1-oxopropan-2-yl)-2-(4-(2-methyl-2H-pyrazolo[3,4-b]pyridin-5-yl)phenyl) cyclopropane-1-carboxamide], in that order: 106 ± 5.38% and 104 nM.
Take `Cn1cc(C[C@@H](NC(=O)[C@H]2C[C@@H]2c2ccc(-c3cnc4nn(C)cc4c3)cc2)C(=O)NC(C)(C)Cn2nc(C(F)(F)F)cc2-c2n[nH]cc2F)cn1` [Example 14, (1S,2S)-N-((R)-1-((1-(4-Fluoro-5′-(trifluoromethyl)-1H,2′H-[3,3′-bipyrazol]-2′-yl)-2-methylpropan-2-yl)amino)-3-(1-methyl-1H-pyrazol-4-yl)-1-oxopropan-2-yl)-2-(4-(2-methyl-2H-pyrazolo[3,4-b]pyridin-5-yl)phenyl) cyclopropane-1-carboxamide]: the Emax was found to be 103 ± 10.2% and the EC50 was 87.7 nM.
`Cc1ncc(-c2cc(C(F)(F)F)nn2CC(C)(C)NC(=O)[C@@H](Cc2cnn(C)c2)NC(=O)[C@H]2C[C@@H]2c2ccc(-c3cnc4nn(C)cc4c3)cc2)[nH]1` [Example 15, (1S,2S)-N-((R)-1-((2-Methyl-1-(5-(2-methyl-1H-imidazol-5-yl)-3-(trifluoromethyl)-1H-pyrazol-1-yl)propan-2-yl)amino)-3-(1-methyl-1H-pyrazol-4-yl)-1-oxopropan-2-yl)-2-(4-(2-methyl-2H-pyrazolo[3,4-b]pyridin-5-yl)phenyl) cyclopropane-1-carboxamide]: the Emax was determined as 117 ± 6.6% and the EC50 amounted to 24.6 nM.
For `Cn1cc(C[C@@H](NC(=O)[C@H]2C[C@@H]2c2ccc(-c3cnc4nn(C)cc4c3)cc2)C(=O)NC(C)(C)Cn2nc(C(F)(F)F)cc2-c2n[nH]c(=O)s2)cn1` [Example 16, (1S,2S)-N-((R)-1-((2-Methyl-1-(5-(5-oxo-4,5-dihydro-1,3,4-thiadiazol-2-yl)-3-(trifluoromethyl)-1H-pyrazol-1-yl)propan-2-yl)amino)-3-(1-methyl-1H-pyrazol-4-yl)-1-oxopropan-2-yl)-2-(4-(2-methyl-2H-pyrazolo[3,4-b]pyridin-5-yl)phenyl) cyclopropane-1-carboxamide], in that order: 104 ± 4.17% and 36 nM.
In the same order, the values of `Cn1cc(C[C@@H](NC(=O)[C@H]2C[C@@H]2c2ccc(-c3cnc4nn(C)cc4c3)cc2)C(=O)NC(C)(C)Cn2nc(C(F)(F)F)cc2-c2ncsn2)cn1` [Example 17, (1S,2S)-N-((R)-1-((1-(5-(1,2,4-Thiadiazol-3-yl)-3-(trifluoromethyl)-1H-pyrazol-1-yl)-2-methylpropan-2-yl)amino)-3-(1-methyl-1H-pyrazol-4-yl)-1-oxopropan-2-yl)-2-(4-(2-methyl-2H-pyrazolo [3,4-b]pyridin-5-yl)phenyl) cyclopropane-1-carboxamide] are 129 ± 11.4% and 83.5 nM.
For `Cn1cc(C[C@@H](NC(=O)[C@H]2C[C@@H]2c2ccc(-c3cnc4nn(C)cc4c3)cc2)C(=O)NC(C)(C)Cn2nc(C(F)(F)F)cc2-c2ccnc(C(C)(C)O)c2)cn1` [Example 18, (1S,2S)-N-((R)-1-((1-(5-(2-(2-Hydroxypropan-2-yl)pyridin-4-yl)-3-(trifluoromethyl)-1H-pyrazol-1-yl)-2-methylpropan-2-yl)amino)-3-(1-methyl-1H-pyrazol-4-yl)-1-oxopropan-2-yl)-2-(4-(2-methyl-2H-pyrazolo [3,4-b]pyridin-5-yl)phenyl) cyclopropane-1-carboxamide], in that order: 116 ± 13% and 12 nM.
Consider `Cn1cc(C[C@@H](NC(=O)[C@H]2C[C@@H]2c2ccc(-c3cnc4nn(C)cc4c3)cc2)C(=O)NC(C)(C)Cn2nc(C(F)(F)F)cc2-c2ccc(=O)n(C)c2)cn1` [Example 19, (1S,2S)-N-((R)-1-((2-Methyl-1-(5-(1-methyl-6-oxo-1,6-dihydropyridin-3-yl)-3-(trifluoromethyl)-1H-pyrazol-1-yl)propan-2-yl)amino)-3-(1-methyl-1H-pyrazol-4-yl)-1-oxopropan-2-yl)-2-(4-(2-methyl-2H-pyrazolo[3,4-b]pyridin-5-yl)phenyl) cyclopropane-1-carboxamide], for which the Emax was 123 ± 1.72% and the EC50 worked out at 66.9 nM.
As to `Cn1cc(C[C@@H](NC(=O)[C@H]2C[C@@H]2c2ccc(-c3cnc4nn(C)cc4c3)cc2)C(=O)NC(C)(C)Cn2nc(C(F)(F)F)cc2-n2ccccc2=O)cn1` [Example 20, (1S,2S)-N-((R)-1-((2-Methyl-1-(5-(2-oxopyridin-1(2H)-yl)-3-(trifluoromethyl)-1H-pyrazol-1-yl)propan-2-yl)amino)-3-(1-methyl-1H-pyrazol-4-yl)-1-oxopropan-2-yl)-2-(4-(2-methyl-2H-pyrazolo[3,4-b]pyridin-5-yl)phenyl) cyclopropane-1-carboxamide], the Emax was 126 ± 2.39% and the EC50 was 79.7 nM.
For `Cn1cc(C[C@@H](NC(=O)[C@H]2C[C@@H]2c2ccc(-c3cnc4nn(C)cc4c3)cc2)C(=O)NC(C)(C)Cn2nc(C(F)(F)F)cc2C2CC2)cn1` [Example 21, (1S,2S)-N-((R)-1-((1-(5-Cyclopropyl-3-(trifluoromethyl)-1H-pyrazol-1-yl)-2-methylpropan-2-yl)amino)-3-(1-methyl-1H-pyrazol-4-yl)-1-oxopropan-2-yl)-2-(4-(2-methyl-2H-pyrazolo [3,4-b]pyridin-5-yl)phenyl) cyclopropane-1-carboxamide], in that order: 102 ± 1.71% and 63.4 nM.
For the compound `Cn1cc(C[C@@H](NC(=O)[C@H]2C[C@@H]2c2ccc(-c3cnc4nn(C)cc4c3)nc2C(F)(F)F)C(=O)NC(C)(C)Cn2cc(C(F)(F)F)cn2)cn1` [Example 22, (1S,2S)-N-((R)-1-((2-Methyl-1-(4-(trifluoromethyl)-1H-pyrazol-1-yl)propan-2-yl)amino)-3-(1-methyl-1H-pyrazol-4-yl)-1-oxopropan-2-yl)-2-(6-(2-methyl-2H-pyrazolo[3,4-b]pyridin-5-yl)-2-(trifluoromethyl)pyridin-3-yl)cyclopropane-1-carboxamide], the Emax was found to be 109 ± 11.6% and the EC50 amounted to 61.3 nM.
In the same order, the values of `Cn1cc(C[C@@H](NC(=O)[C@H]2C[C@@H]2c2ccc(-c3cnc4nc(C(F)(F)F)cn4c3)cc2)C(=O)NC(C)(C)Cn2nc(C(F)(F)F)cc2-n2ccnn2)cn1` [Example 23, (1S,2S)-N-((R)-1-((1-(5-(1H-1,2,3-Triazol-1-yl)-3-(trifluoromethyl)-1H-pyrazol-1-yl)-2-methylpropan-2-yl)amino)-3-(1-methyl-1H-pyrazol-4-yl)-1-oxopropan-2-yl)-2-(4-(2-(trifluoromethyl)imidazo [1,2-a]pyrimidin-6-yl)phenyl) cyclopropane-1-carboxamide] are 111 ± 11.6% and 44.4 nM.
For `COC(=O)c1cc(C(F)(F)F)nn1CC(C)(C)NC(=O)[C@@H](Cc1cnn(C)c1)NC(=O)[C@H]1C[C@@H]1c1ccc(-c2cnc3nc(C(F)(F)F)cn3c2)cc1` [Example 24, Methyl 1-(2-methyl-2-((R)-3-(1-methyl-1H-pyrazol-4-yl)-2-((15,2S)-2-(4-(2-(trifluoromethyl)imidazo [1,2-a]pyrimidin-6-yl)phenyl)cyclopropane-1-carboxamido)propanamido)propyl)-3-(trifluoromethyl)-1H-pyrazole-5-carboxylate], in that order: 133 ± 0.579% and 15.8 nM.
